In US20050090505A1, “Methods of reducing risk of infection from pathogens” (priority 2003, published 2005):
Where a name gives a salt, the structure may show the parent alone.

Biological target: T1, airway epithelial sodium currents (sodium channel) (UniProt A0A8I3MKE6+A0A8I3Q679+Q95165)
T1 sequence (A0A8I3MKE6 1-646): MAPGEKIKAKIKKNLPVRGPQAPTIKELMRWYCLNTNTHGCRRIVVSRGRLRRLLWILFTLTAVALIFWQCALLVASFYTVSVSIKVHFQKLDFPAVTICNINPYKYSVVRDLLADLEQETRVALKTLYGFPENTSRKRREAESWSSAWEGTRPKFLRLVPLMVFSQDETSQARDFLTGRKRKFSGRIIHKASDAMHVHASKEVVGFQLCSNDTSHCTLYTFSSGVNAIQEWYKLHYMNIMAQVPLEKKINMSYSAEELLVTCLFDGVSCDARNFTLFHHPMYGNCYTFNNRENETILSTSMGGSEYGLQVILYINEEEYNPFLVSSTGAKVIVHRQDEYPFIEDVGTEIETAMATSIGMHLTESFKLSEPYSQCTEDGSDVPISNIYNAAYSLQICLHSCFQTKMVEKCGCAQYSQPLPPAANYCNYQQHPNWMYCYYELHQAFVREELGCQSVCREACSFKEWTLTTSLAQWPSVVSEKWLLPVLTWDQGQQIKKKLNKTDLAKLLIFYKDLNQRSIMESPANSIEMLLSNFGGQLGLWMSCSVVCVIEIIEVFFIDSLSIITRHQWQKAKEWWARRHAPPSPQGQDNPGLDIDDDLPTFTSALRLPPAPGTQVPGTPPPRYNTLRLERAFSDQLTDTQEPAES
T1 sequence (A0A8I3Q679 1-649): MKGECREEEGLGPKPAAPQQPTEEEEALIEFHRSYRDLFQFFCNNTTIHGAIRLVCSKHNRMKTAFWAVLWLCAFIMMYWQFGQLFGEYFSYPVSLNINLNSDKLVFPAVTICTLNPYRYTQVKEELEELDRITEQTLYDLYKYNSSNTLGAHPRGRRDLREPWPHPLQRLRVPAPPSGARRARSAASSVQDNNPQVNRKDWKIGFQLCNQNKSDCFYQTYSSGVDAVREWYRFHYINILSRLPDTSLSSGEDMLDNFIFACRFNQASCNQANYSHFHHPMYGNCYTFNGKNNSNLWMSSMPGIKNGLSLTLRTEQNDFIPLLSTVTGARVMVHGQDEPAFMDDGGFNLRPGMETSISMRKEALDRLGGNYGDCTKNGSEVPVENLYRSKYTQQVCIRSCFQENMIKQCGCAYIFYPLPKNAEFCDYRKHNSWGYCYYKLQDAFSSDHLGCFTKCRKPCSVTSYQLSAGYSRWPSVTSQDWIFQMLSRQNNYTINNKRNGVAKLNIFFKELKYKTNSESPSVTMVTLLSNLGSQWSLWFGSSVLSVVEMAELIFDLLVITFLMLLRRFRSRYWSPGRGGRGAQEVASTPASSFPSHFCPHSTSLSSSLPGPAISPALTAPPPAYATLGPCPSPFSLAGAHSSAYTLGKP
T1 sequence (Q95165 1-641): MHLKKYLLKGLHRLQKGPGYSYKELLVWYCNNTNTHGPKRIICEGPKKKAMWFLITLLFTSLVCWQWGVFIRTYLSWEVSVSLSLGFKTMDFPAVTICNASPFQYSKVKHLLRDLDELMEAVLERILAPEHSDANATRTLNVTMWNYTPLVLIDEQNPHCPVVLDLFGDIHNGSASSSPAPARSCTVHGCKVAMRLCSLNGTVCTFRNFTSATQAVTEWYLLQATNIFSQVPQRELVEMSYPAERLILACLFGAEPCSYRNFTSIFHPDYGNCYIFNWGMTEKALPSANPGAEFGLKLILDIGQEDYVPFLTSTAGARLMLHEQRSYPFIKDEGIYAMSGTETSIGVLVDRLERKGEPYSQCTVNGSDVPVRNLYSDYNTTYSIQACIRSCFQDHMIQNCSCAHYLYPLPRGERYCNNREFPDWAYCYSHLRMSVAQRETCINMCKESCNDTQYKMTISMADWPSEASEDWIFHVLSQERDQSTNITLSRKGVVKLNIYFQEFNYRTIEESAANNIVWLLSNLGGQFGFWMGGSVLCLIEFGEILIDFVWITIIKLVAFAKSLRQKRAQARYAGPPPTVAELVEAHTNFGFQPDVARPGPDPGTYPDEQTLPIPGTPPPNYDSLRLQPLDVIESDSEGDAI
Assay: Sodium channel blocking activity: inhibition of short circuit current (ISC) in airway epithelial monolayers mounted in Ussing chambers
Assay type: cell-based, human, dog, sheep or rodent
Settings: for Fold Amiloride** (PSA 4022 = 100): relative potency for PSA 4022 = 100 using EC50 from PSA 4022 in same run; for EC50: mean ± spread
Description: In Vitro Measure of Sodium Channel Blocking Activity and Reversibility
One assay used to assess mechanism of action and/or potency of the compounds of the present invention involves the determination of lumenal drug inhibition of airway epithelial sodium currents measured under short circuit current (ISC) using airway epithelial monolayers mounted in Ussing chambers. Cells obtained from freshly excised human, dog, sheep or rodent airways are seeded onto porous 0.4 micron Snapwell™ Inserts (CoStar), cultured at air-liquid interface (ALI) conditions in hormonally defined media, and assayed for sodium transport activity (ISC) while bathed in Krebs Bicarbonate Ringer (KBR) in Using chambers. All test drug additions are to the lumenal bath with half-log dose addition protocols (from 1×10^−11 M to 3×10^−5 M), and the cumulative change in ISC (inhibition) recorded. All drugs are prepared in dimethyl sulfoxide as stock solutions at a concentration of 1×10^−2 M and stored at −20° C. Eight preparations are typically run in parallel; two preparations per run incorporate amiloride and/or benzamil as positive controls. After the maximal concentration (5×10^−5 M) is administered, the lumenal bath is exchanged three times with fresh drug-free KBR solution, and the resultant ISC measured after each wash for approximately 5 minutes in duration. Reversibility is defined as the percent return to the baseline value for sodium current after the third wash. All data from the voltage clamps are collected via a computer interface and analyzed off-line.
Dose-effect relationships for all compounds are considered and analyzed by the Prism 3.0 program. IC50 values, maximal effective concentrations, and reversibility are calculated and compared to amiloride and benzamil as positive controls.

[1] = Selected Alaphatic Pyrazinoylguanidines (Formula II)
[2] = Selected Cyclic Pyrazinoylguanidines (Formula III)

Row | SMILES | Fold Amiloride** (PSA 4022 = 100) (Alaphatic Pyrazinoylguanidines) | EC50 [1] [nM] | further results
1 | CN(C)C(=O)COc1ccc(CCCCNC(=N)NC(=O)c2nc(Cl)c(N)nc2N)cc1 [compound 16313, 2-(4-{4-[N-(3,5-diamino-6-chloropyrazine-2-carbonyl)guanidino]-butyl}phenoxy)-N,N-dimethylacetamide hydrochloride] |  |  | Fold Amiloride** (PSA 4022 = 100) (Capped Pyrazinoylguanidines): 41 ± 7
2 | N=C(NCCCCc1ccc(OCC(=O)NCC(N)=O)cc1)NC(=O)c1nc(Cl)c(N)nc1N [compound 16314, N-carbamoylmethyl-2-(4-{4-[N′-(3,5-diamino-6-chloropyrazine-2-carbonyl)guanidino]butyl}phenoxy)acetamide] |  |  | Fold Amiloride** (PSA 4022 = 100) (Capped Pyrazinoylguanidines): 41 ± 6
3 | N=C(NCCCCc1ccc(OCC(=O)Nc2ncc[nH]2)cc1)NC(=O)c1nc(Cl)c(N)nc1N [compound 16437, 2-(4-{4-[N′-(3,5-diamino-6-chloropyrazine-2-carbonyl)guanidino]-butyl}phenoxy)-N-(1H-imidazol-2-yl)acetamide dihydrochloride] |  |  | Fold Amiloride** (PSA 4022 = 100) (Capped Pyrazinoylguanidines): 77 ± 53
4 | N=C(NCCCCCCN)NC(=O)c1nc(Cl)c(N)nc1N [compound 18706, N-(6-aminohexyl)-N′-(3,5-diamino-6-chloropyrazine-2-carbonyl)guanidine dihydrochloride] | 4 ± 1 | 254 ± 118 | 
5 | N=C(N)NCCCCCCCCCNC(=N)NC(=O)c1nc(Cl)c(N)nc1N [compound 19006, N-{9-[N′-(3,5-diamino-6-chloropyrazine-2-carbonyl)guanidino]nonyl}guanidine dihydrochloride] | 11 ± 2 | 60 ± 15 | 
6 | N=C(N)NCCCCCCCNC(=N)NC(=O)c1nc(Cl)c(N)nc1N [compound 19155, N-{7-[N′-(3,5-diamino-6-chloropyrazine-2-carbonyl)guanidino]heptyl}guanidine dihydrochloride] | 8 ± 7 | 81 ± 45 | 
7 | N=C(NCCCCCCCCCN)NC(=O)c1nc(Cl)c(N)nc1N [compound 19335, N-(9-aminononyl)-N′-(3,5-diamino-6-chloropyrazine-2-carbonyl)-guanidine dihydrochloride] | 19 ± 7 |  | 
8 | N=C(NCCCCCCCCN)NC(=O)c1nc(Cl)c(N)nc1N [compound 19336, N-(8-aminooctyl)-N′-(3,5-diamino-6-chloropyrazine-2-carbonyl)-guanidine dihydrochloride] | 12 ± 3 | 76 ± 18 | 
9 | N=C(NCCCCCCCCCCN)NC(=O)c1nc(Cl)c(N)nc1N [compound 19487, N-(10-aminodecyl)-N′-(3,5-diamino-6-chloropyrazine-2-carbonyl)-guanidine dihydrochloride] | 37 ± 1 | 25 ± 11 | 
10 | N=C(N)NCCCCCCCCNC(=N)NC(=O)c1nc(Cl)c(N)nc1N [compound 19604, N-{8-[N′-(3,5-diamino-6-chloropyrazine-2-carbonyl)guanidino]octyl}-guanidine dihydrochloride] | 63 ± 61 | 25 ± 27 | 
11 | N=C(N)NCCCCCCCCCCNC(=N)NC(=O)c1nc(Cl)c(N)nc1N [compound 23608, N-{10-[N′-(3,5-diamino-6-chloropyrazine-2-carbonyl)guanidino]-decyl}guanidine dihydrochloride] | 41 ± 29 | 17 ± 8 | 
12 | N=C(NCCCCCCCCCCCCN)NC(=O)c1nc(Cl)c(N)nc1N [compound 23609, N-(12-aminododecyl)-N′-(3,5-diamino-6-chloropyrazine-2-carbonyl)-guanidine dihydrochloride] | 66 ± 36 | 13 ± 7 | 
13 | N=C(NCCCCCCCCCCCN)NC(=O)c1nc(Cl)c(N)nc1N [compound 23682, N-(11-aminoundecyl)-N′-(3,5-diamino-6-chloropyrazine-2-carbonyl)guanidine dihydrochloride] | 51 ± 15 | 12 ± 3 | 
14 | N=C(N)NCCCCCCCCCCCCNC(=N)NC(=O)c1nc(Cl)c(N)nc1N [compound 23683, N-{12-[N′-(3,5-diamino-6-chloropyrazine-2-carbonyl)guanidino]dodecyl)guanidine dihydrochloride] | 68 ± 48 | 41 ± 68 | 
15 | N=C(N)NCCCCCCCCCCCNC(=N)NC(=O)c1nc(Cl)c(N)nc1N [compound 23991, N-{11-[N′-(3,5-diamino-6-chloropyrazine-2-carbonyl)guanidino]-undecyl}guanidine dihydrochloride] | 20 ± 12 | 64 ± 77 | 
16 | N=C(NCCCCc1ccc(C[C@@H](N)CC(=O)O)cc1)NC(=O)c1nc(Cl)c(N)nc1N [compound 24407] |  |  | Fold Amiloride** (PSA 4022 = 100) (Capped Pyrazinoylguanidines): 23 ± 4
17 | N=C(NCCCCC1CCN(CCO)CC1)NC(=O)c1nc(Cl)c(N)nc1N [compound 25193, N-(3,5-diamino-6-chloropyrazine-2-carbonyl)-N′-{4-[1-(2-hydroxyethyl)piperidin-4-yl]butyl}guanidine dihydrochloride] |  |  | Fold Amiloride** (PSA 4022 = 100) (Cyclic Pyrazinoylguanidines): 8 ± 3; EC50 [2]: 99 ± 14 nM
18 | N=C(NCCCCC1CCN(CCCO)CC1)NC(=O)c1nc(Cl)c(N)nc1N [compound 25310, N-(3,5-Diamino-6-chloropyrazine-2-carbonyl)-N′-{4-[1-(3-hydroxypropyl)piperidin-4-yl]butyl}guanidine dihydrochloride] |  |  | Fold Amiloride** (PSA 4022 = 100) (Cyclic Pyrazinoylguanidines): 5 ± 2; EC50 [2]: 169 ± 47 nM
